Assay results reported in patent US7705119B1, “Compositions and methods useful for treating circulatory and hypovolemic shock” (University of Kentucky Research Foundation, priority 2007, dated 2010).
“Also recorded” adds a separate entry of the source. Square brackets hold non-standard residues; d marks the D form. Peptide text beside a SMILES is read from it.

Tests used:
[1] = tested on: Sprague-Dawley rats; assay: 30 minute inhibitor pre-treatment before 5.5 mg/kg Delt-E post hemorrhage injection; format: in vivo, rat; settings: for Maximum HR in BPM ± S.E. / Maximum MAP in mmHg ± S.E. / Survival Time in minutes ± S.E.: then 5.5 mg/kg Delt-E post hemorrhage
Excerpt: The hemorrhagic shock model used was a volume-controlled model similar to that of Summers et al. Acad Emerg Med. 10:587-93 (2003). Forty-six male Sprague-Dawley rats (about 341-411 grams) were acclimated to a laboratory environment for a week. In dwelling heparinized PE 10 catheters were placed in the femoral artery and the femoral vein of anesthetized rats. The two catheters were combined and exited suprascapularly, tied in place with braided silk, and covered with a piece of hypoallergenic mesh to prevent kinking. Rats were then placed in recovery cages for 24 hr, allowed access to food and water, and allowed unrestricted access to both catheters. The femoral artery catheter was used for volume-controlled hemorrhage and blood pressure measurements and the femoral vein catheter was used for Delt-E infusion. Each selected animal was randomly assigned 1 of […] post hemorrhage treat groups: 1 mL/100 g saline control (n=6), 2.85 mg/kg Delt-E (n=6), 4.2 mg/kg Delt-E (n=6), 5.5 mg/kg Delt-E (n=6), and 14 mg/kg Delt-E (n=6). Animals were also selected and randomly assigned to 1 of 4, 30-minute pre-treatment inhibitor groups: Naltriben Methane Sulfonate (NTB) (n=4), Naltrexone (n=4), Glibenclamide (n=4), and 7-Dehydrobenzylidine naltrexone (BNTX) (n=4) followed by a 5.5 mg/kg injection of Delt-E.
Opioid Inhibitors: The opioid inhibitors (naltrexone, naltriben methane sulfonate (NTB) and 7 Dehydrobenzylidine naltrexone (BNTX) and Glibenclamide were administered 30 minutes prior to hemorrhage. MAP and HR were recorded continuously before hemorrhage to ensure no adverse affects on MAP or HR occurred as a result of the pre-injection. At the end of 30 minutes, volume-controlled hemorrhage was induced followed by a post hemorrhage injection of 5.5 mg/kg Delt-E, the optimal dose found to increase hemodynamic stability. Naltrexone (10 mg/kg, Sigma-Aldrich), NTB (1 mg/kg, Sigma-Aldrich), and BNTX (1 mg/kg, Tocris Bioscience) were used as 30 minute pre-injection opioid receptor antagonists. Glibenclamide (10 mg/kg, Sigma Aldrich) was used as a KATP channel blocker.
Data Analysis: Statistical analysis was preformed using SPSS software with P value <0.05 being considered significant. The survival, MAP, HR and lactic acid values were analyzed using repeated measures analysis of variance (ANOVA) between groups to identify differences between groups. To evaluate differences between means, the ANOVA with post hoc least square differences were used (LSD analysis).

[2] = tested on: KATP channels; settings: Wild et al. 1991; cited from earlier work
[3] = tested on: Sprague-Dawley rats; assay: Post hemorrhage Delt-E infusion, volume-controlled hemorrhagic shock model without fluid resuscitation; format: in vivo, rat; settings: 14.0 mg/kg i.v. post hemorrhage
Excerpt: A murine hemorrhagic shock model was used to evaluate the effects of administration of Deltorphin-E (Delt-E), without concomitant fluid resuscitation, on hemodynamic status, plasma lactate levels, and survival rates.
The hemorrhagic shock model used was a volume-controlled model similar to that of Summers et al. Acad Emerg Med. 10:587-93 (2003). Forty-six male Sprague-Dawley rats (about 341-411 grams) were acclimated to a laboratory environment for a week. In dwelling heparinized PE 10 catheters were placed in the femoral artery and the femoral vein of anesthetized rats. […]
Treatment: Twenty-four hours after catheter placement, test rats (n=24) were infused in the femoral vein with either 2.85, 4.2, 5.5 or 14 mg/kg of Delt-E (Tyr-D-Ala-Phe-Ala-Ile-Gly-Asp-Phe-Ser-Ile-NH2; SEQ ID NO: 1) dissolved in 1.0 ml Lactated Ringers (LR) solution pH 7.4. […] Prior to hemorrhage MAP and HR were recorded to establish baseline levels. […] After the final mL of blood was removed the various venous catheter treatment injections were administered, MAP and HR were recorded continuously for the duration of survival or up to 6 hours.
Biomarker protocols: Survival time was determined by the post hemorrhage time after injection until death, or a predetermined 360 minute survival interval. […] Pulse pressure was determined by the difference (mmHg) between the systolic and diastolic pressure during a single cardiac cycle. […]

[4] = inhibitor 1 mg/kg 30 min prior to hemorrhage
[5] = inhibitor 10 mg/kg 30 min prior to hemorrhage

| Compound | blockade of post hemorrhage hemodynamic recovery / survival benefits of 5.5 mg/kg Delt-E [1, 4] | Maximum HR in BPM ± S.E. [1, 4] [BPM] | Maximum MAP in mmHg ± S.E. [1, 4] [mmHg] | Survival Time in minutes ± S.E. [1, 4] [min] | blockade of post hemorrhage hemodynamic recovery / survival benefits of 5.5 mg/kg Delt-E [1, 5] | Maximum HR in BPM ± S.E. [1, 5] [BPM] | Maximum MAP in mmHg ± S.E. [1, 5] [mmHg] | Survival Time in minutes ± S.E. [1, 5] [min] | other results |
| --- | --- | --- | --- | --- | --- | --- | --- | --- | --- |
| O=C1/C(=C/c2ccccc2)C[C@@]2(O)[C@H]3Cc4ccc(O)c5c4[C@@]2(CCN3CC2CC2)[C@H]1O5 [BNTX, 7-Dehydrobenzylidine naltrexone] | did not block | 400 ± 77 | 55 ± 12 | 356 ± 3 |  |  |  |  |  |
| DPDPE |  |  |  |  |  |  |  |  | cardioprotective effect in the presence of Glibenclamide [2]: could be negated by Glibenclamide |
| CC[C@H](C)[C@H](NC(=O)[C@H](CO)NC(=O)[C@H](Cc1ccccc1)NC(=O)[C@H](CC(=O)O)NC(=O)CNC(=O)[C@@H](NC(=O)[C@H](C)NC(=O)[C@H](Cc1ccccc1)NC(=O)[C@@H](C)NC(=O)[C@@H](N)Cc1ccc(O)cc1)[C@@H](C)CC)C(N)=O [Delt-E, Tyr-(D-Ala)-Phe-Ala-Ile-Gly-Asp-Phe-Ser-Ile-NH2] (H-Y[dA]FAIGDFSI-NH2) |  |  |  |  |  |  |  |  | Toxicity of dose [3]: toxic |
| Oc1ccc2c3c1O[C@H]1c4oc5ccccc5c4C[C@@]4(O)[C@@H](C2)N(CC2CC2)CC[C@]314 [NTB, Naltriben Methane Sulfonate] | blocked | 423 ± 68 | 37 ± 13 | 58 ± 12 |  |  |  |  |  |
| COc1ccc(Cl)cc1C(=O)NCCc1ccc(S(=O)(=O)NC(=O)NC2CCCCC2)cc1 [Glibenclamide] |  |  |  |  | did not alter the survival advantage; also recorded: not blocked | 393 ± 43 | 56 ± 10 | 347 ± 15 |  |
| O=C1CC[C@@]2(O)[C@H]3Cc4ccc(O)c5c4[C@@]2(CCN3CC2CC2)[C@H]1O5 [Naltrexone] |  |  |  |  | partially blocked | 419 ± 75 | 49 ± 8 | 95 ± 11 |  |
